# Data: US20250074910A1, “MENIN INHIBITOR AND USE THEREOF” (HITGEN INC., priority 2021, published 2025)
# What was measured:
# [1] = Stability in human liver microsomes; type: in vitro ADME; conditions: human, liver microsomes, pH 7.4, Human; 0.5 mg/mL microsomal protein, 1.00 μM compound, NADPH; read-out: Half life T1/2, human liver microsomes
# Procedure: (§1) Test Example 3: Test of Stability of Compounds in Liver Microsome
# (§2) Test purpose: To determine the stability of some of the compounds of the present disclosure in mouse, dog and human liver microsomes by LC-MS/MS method.
# (§3) Test materials: The test drugs were in-house prepared example compounds of the present disclosure; the positive reference compound SNDX-5613 was prepared by the method of Example 253 in patent WO2017214367; the control compound 1 was prepared by the method of Example 64 in WO2017214367; liver microsomes were purchased from CORNING.
# (§4) The total volume of each incubation system was approximately 45 μL, and the medium was 100 mM phosphate buffer (PBS, pH 7.4), including liver microsomal protein at a final concentration of 0.5 mg/mL, 1.00 μM compound and 2.00 mM NADPH, and the organic phase content was <1%. Incubation was performed in a 37° C. incubator, and 135 μL of ice-cold acetonitrile was added after 0, 5, 15, 30 and 60 min of reaction to terminate the reaction. The positive control group was incubated with 1.00 μM Ketanserin, 0.5 mg/mL liver microsomal protein and 2.00 mM NADPH in a 37° C. incubator for 0, 5, 15, 30 and 60 min respectively, and then 135 μL of ice-cold acetonitrile was added to terminate the reaction. The 96-well plates were shaken at 600 rpm for 10 min and then centrifuged at 4700 rpm at 4° C. for 15 min. 80 μL of supernatant was mixed with 320 μL of pure water, and the remaining amount of the compound was detected by LC-MS/MS method. The in vitro half life (T½) and intrinsic clearance (CLint) were calculated according to the following formula:
# (§5) Intrinsic clearance (Clint)=(0.693/T1/2)×(1/liver microsome concentration)×conversion factor. k is the linear regression slope of the remaining percentage of the ln compound-incubation time.
# MV4-11 = test: Cell proliferation inhibition (CellTiter-Glo), MV4-11; type: cell-based; conditions: Homo sapiens, MV4-11, 72 h, MV4-11 cells
# Procedure, shortened: (§6)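 Seed 5,000-20,000 cells/well; add compound to final 1 nM-10 μM; culture 72-168 h at 37° C, 5% CO2; add equal volume CellTiter-Glo, 10 min RT; read luminescence; fit IC50.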
# [2] = Stability in mouse liver microsomes; type: in vitro ADME; conditions: liver microsomes, pH 7.4, 0.5 mg/mL microsomal protein, 1.00 μM compound, NADPH, read-out: Half life T1/2, mouse liver microsomes
# Procedure: as §1, §2, §3, §4, §5
# MOLM-13 = test: Cell proliferation inhibition (CellTiter-Glo), MOLM-13; type: cell-based; conditions: Homo sapiens, MOLM-13, 168 h, MOLM-13 cells
# Procedure: Test Example 2: Test of the Inhibitory Ability of Menin-MLL Interaction Inhibitors on Cell Proliferation
# The inhibitory ability of the compounds of the present disclosure on the proliferation of tumor cell lines (including cell lines containing MLL fusion protein such as MV4-11, MOLM-13, THP-1 and NOMO-1, control cell lines without MLL fusion protein such as HL-60, K562 and MOLM-16, and cell lines containing NPM1 mutation such as OCI-AML3) was evaluated by using the cell viability analysis method. The cells were plated in 96-well plates at a certain concentration (e.g., 5,000-20,000 cells/well), and then an equal volume of culture medium containing 2 times the final concentration of the test compound (the final concentration ranging 10 from 1 nM to 10 μM) was added. The plates were placed in an incubator and cultured at 37° C. and 5% CO2 for 72-168 h. Before the test, an equal volume of CellTiter-Glo® Luminescent reagent was added, and the plate was incubated at room temperature for 10 min before detection using an ELISA reader (BMG LABTECH). The data were analyzed using GraphPad Prism software to obtain the IC50 value and compound fitting curve. The control compound 1 was prepared by referring to the method of Example 64 in WO2017214367.
# [3] = target: Menin/MLL-4-43 peptide interaction (Homo sapiens (Human), UniProt O00255); test: Menin-MLL interaction inhibitory activity assay (fluorescence polarization competition); type: binding; conditions: FITC-MLL4-43-peptide, Menin recombinant protein
# Procedure, shortened: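 Menin (8 nM solution) was preincubated 15 min with compound, then FITC-MLL4-43 peptide (10 nM solution) was added and shaken for 60 min at 25 °C. The buffer was 50 mM Tris pH 7.5, 50 mM NaCl, 1 mM DTT. IC50 was derived from fluorescence polarization read at 485/520 nm.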
# OCI-AML3 = test: Cell proliferation inhibition (CellTiter-Glo), OCI-AML3 (NPM1 mutation); type: cell-based; conditions: Homo sapiens, OCI-AML-3, 168 h, OCI-AML3 cells
# Procedure, shortened: as §6
# [4] = Stability in dog liver microsomes; type: in vitro ADME; conditions: dog, liver microsomes, pH 7.4, Dog; 0.5 mg/mL microsomal protein, 1.00 μM compound, NADPH; read-out: Half life T1/2, dog liver microsomes
# Procedure: as §1, §2, §3, §4, §5
# [5] = target: hERG potassium ion channel (Homo sapiens (Human), UniProt Q12809); test: hERG potassium channel effect test (manual patch clamp, HEK293 cells overexpressing hERG); type: cell-based; conditions: for inhibition at 30 μM: human, HEK293 cells overexpressing hERG potassium ion channels, read-out: Average inhibition rate of hERG current at the highest compound tested concentration; for IC50: manual patch clamp, highest test concentration 30 μM
# Procedure: Test Example 6: hERG Potassium Channel Effect Test
# The hERG inhibition test was performed on some of the example compounds of the present disclosure using the manual electrophysiological patch clamp method. The cell line was derived from HEK293 cells that overexpressed hERG potassium ion channels. The specific experimental protocol was developed by PharmaCore Labs with reference to literature published in peer-reviewed journals and was performed by PharmaCore Labs in accordance with its standard experimental operating procedures. The highest test concentration was 30 μM.
# Chain of hERG potassium ion channel (Q12809 whole entry): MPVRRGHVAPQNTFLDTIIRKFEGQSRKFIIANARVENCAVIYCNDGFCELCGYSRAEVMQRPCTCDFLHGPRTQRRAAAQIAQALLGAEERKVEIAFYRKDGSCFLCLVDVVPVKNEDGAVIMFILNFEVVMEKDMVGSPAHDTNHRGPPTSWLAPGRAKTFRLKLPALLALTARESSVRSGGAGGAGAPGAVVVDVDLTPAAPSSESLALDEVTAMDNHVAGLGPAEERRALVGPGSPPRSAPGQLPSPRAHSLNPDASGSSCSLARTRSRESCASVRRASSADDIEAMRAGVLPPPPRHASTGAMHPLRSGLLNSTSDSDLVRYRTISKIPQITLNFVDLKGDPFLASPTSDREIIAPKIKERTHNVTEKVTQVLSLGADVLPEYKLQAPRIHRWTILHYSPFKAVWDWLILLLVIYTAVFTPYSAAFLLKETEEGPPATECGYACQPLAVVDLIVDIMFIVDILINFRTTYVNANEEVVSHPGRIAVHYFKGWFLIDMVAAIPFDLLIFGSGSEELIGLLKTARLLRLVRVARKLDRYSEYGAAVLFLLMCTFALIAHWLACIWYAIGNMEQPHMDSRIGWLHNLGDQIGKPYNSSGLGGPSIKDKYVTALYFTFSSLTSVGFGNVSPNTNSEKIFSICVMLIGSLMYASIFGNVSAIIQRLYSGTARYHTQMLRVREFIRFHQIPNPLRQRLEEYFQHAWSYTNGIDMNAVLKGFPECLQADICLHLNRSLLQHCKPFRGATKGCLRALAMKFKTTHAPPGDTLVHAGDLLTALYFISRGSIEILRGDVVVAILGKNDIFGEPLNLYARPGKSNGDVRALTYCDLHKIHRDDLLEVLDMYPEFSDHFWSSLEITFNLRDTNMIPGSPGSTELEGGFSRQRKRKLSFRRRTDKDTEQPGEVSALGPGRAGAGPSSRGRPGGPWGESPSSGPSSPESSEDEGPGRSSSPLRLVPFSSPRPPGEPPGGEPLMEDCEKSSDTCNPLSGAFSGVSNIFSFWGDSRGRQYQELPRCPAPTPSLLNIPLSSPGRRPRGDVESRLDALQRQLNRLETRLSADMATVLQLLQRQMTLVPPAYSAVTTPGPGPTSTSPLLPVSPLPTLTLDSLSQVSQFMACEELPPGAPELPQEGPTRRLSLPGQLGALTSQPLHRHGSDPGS
# Chain of Menin/MLL-4-43 peptide interaction (O00255 whole entry, species assumed): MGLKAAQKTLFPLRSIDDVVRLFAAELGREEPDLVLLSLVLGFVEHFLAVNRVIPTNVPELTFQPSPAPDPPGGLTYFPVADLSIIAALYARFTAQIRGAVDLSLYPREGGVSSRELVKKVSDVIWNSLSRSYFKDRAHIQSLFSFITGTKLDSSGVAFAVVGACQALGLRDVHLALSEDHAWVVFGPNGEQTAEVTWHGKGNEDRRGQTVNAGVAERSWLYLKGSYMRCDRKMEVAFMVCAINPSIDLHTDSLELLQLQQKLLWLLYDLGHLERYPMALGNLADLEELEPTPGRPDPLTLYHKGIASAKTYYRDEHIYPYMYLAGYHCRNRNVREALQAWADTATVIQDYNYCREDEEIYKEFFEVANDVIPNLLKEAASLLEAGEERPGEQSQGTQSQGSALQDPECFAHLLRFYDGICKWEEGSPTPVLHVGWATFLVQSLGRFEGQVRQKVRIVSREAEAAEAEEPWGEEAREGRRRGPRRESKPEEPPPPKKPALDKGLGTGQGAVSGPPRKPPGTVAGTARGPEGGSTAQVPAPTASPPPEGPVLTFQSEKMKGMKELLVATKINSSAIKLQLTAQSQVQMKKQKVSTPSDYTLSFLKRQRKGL
SMILES,half-life at 1 μM [1] [h],GI50 (MV4-11) [nM],half-life at 1 μM [2] [h],GI50 (MOLM-13) [nM],IC50 [3] [nM],GI50 (OCI-AML3) [nM],half-life at 1 μM [4] [h],inhibition at 30 μM [5] [%],IC50 [5] [nM]
CCN(C(=O)c1cc(F)ccc1Oc1nncnc1N1CC2(CCN(C[C@H]3CC[C@]4(CC3)CC(C)(C)C(=O)N4)CC2)C1)C(C)C [Example 26],0.618,19.2,1.33,162,7.4,94,1.04,–,–
CC1C[C@]2(CC[C@@H](CN3CCC4(CC3)CN(c3ncnnc3Oc3ccc(F)cc3C(=O)N(C(C)C)C(C)C)C4)CC2)NC1=O (stereo partly drawn) [Example 41-1],–,25.5,–,52.7,10.8,64.1,–,13.2,> 30000
CCN(C(=O)c1cc(F)ccc1Oc1nncnc1N1CC2(CCN(C[C@H]3CC[C@]4(CC3)CC3(CCOCC3)C(=O)N4)CC2)C1)C(C)C [Example 45],0.618,12.7,> 2,54.1,2.5,48.4,1.53,–,–

# Now from value to compound, other results behind:
half-life at 1 μM [1] [h],GI50 (MV4-11) [nM],half-life at 1 μM [2] [h],GI50 (MOLM-13) [nM],IC50 [3] [nM],GI50 (OCI-AML3) [nM],half-life at 1 μM [4] [h],SMILES,inhibition at 30 μM [5] [%],IC50 [5] [nM]
> 2,88.3,> 2,354,12.9,183,> 2,CCN(C(=O)c1cc(F)ccc1Oc1nncnc1N1CC2(CCN(C[C@H]3CC[C@]4(CC3)C[C@H](COC)C(=O)N4)CC2)C1)C(C)C [Example 37-1],13.2,> 30000
1.09,15.2,> 2,46.5,3.3,40.9,1.5,CCN(C(=O)c1cc(F)ccc1Oc1nncnc1N1CC2(CCN(C[C@H]3CC[C@]4(CC3)C[C@@H](COC)C(=O)N4)CC2)C1)C(C)C [Example 37-2],–,–
